Data taken from US10799507B2, “5-(7H-pyrrolo[2,3-d]pyrimidin-4-yl)-5-azaspiro[2.5]octane-8-carboxylic acid derivatives as novel JAK kinase inhibitors” (LEO Pharma A/S, priority 2017, dated 2020).

Legend:
Type in all cases: biochemical
JAK1 = JAK1 (Homo sapiens (Human), UniProt P23458); assay: JAK kinase assay (HTRF), JAK1; settings: catalytic domain, ATP at Km (7 μM)
Description: (§1) Human baculovirus-expressed JAK1, 2, 3 and TYK2 were purchased from Carna Biosciences, Inc. All four purified enzymes contain only the catalytic domain. JAK1 (aa 850-1154) and TYK2 (aa 871-1187) are expressed with an N-terminally fused GST-tag, and JAK2 and JAK3 with an N-terminally fused His-tag.
(§2) Inhibition of phosphorylation of a synthetic peptide was measured in an HTRF-based assay using the TK substrate-Biotin from the Cisbio HTRFKinEASE TK kit. First, 2 μl of TK solution (TK substrate-biotin in kinase buffer [1× enzymatic buffer from HTRFKinEASE TK kit, 1 mM DTT]) is added to a plate containing 1 μl prediluted compound (final assay concentration DMSO: 0.75%). Then, 5 μl kinase-ATP mix (prepared in kinase buffer) is added to the wells and the plates are incubated at RT for 20-30 min. For all four kinases a concentration of ATP that corresponded to the Km for ATP was used. The final concentrations of buffers, substrate, kinase and ATP were: JAK1: 50 mM Hepes buffer pH 7.0, 0.01% BSA, 10 mM MgCl2, 1 mM DTT, 7 μM ATP, 50 nM SEB, 1 μM TK Substrate-Biotin and 5 ng JAK1; JAK2: 50 mM Hepes buffer pH 7.0, 0.01% BSA, 5 mM MgCl2, 1 mM DTT, 4 μM ATP, 1 μM TK Substrate-Biotin and 0.1 ng JAK2; JAK3: 50 mM Hepes buffer pH 7.0, 0.01% BSA, 5 mM MgCl2, 1 mM DTT, 2 μM ATP, 1 μM TK Substrate-Biotin and 0.3 ng JAK3; TYK2: 50 mM Hepes buffer pH 7.0, 0.01% BSA, 5 mM MgCl2, 1 mM DTT, 13 μM ATP, 50 nM SEB, 1 μM TK Substrate-Biotin and 0.8 ng TYK2. Thereafter, the kinase reaction is stopped by adding 4 μl detection mix (final concentrations: 50 mM Hepes buffer pH 7.0, 0.01% BSA, 0.8 M KF, 20 mM EDTA, 42 nM Streptavidin-XL665 and 1:400 STK Ab Cryptate) and the plates are incubated overnight in the dark. The HTRF signal is read using an Envision plate reader.

JAK2 = JAK2 (Homo sapiens (Human), UniProt O60674); assay: JAK kinase assay (HTRF), JAK2; settings: catalytic domain, ATP at Km (4 μM)
Description: as §1, §2

JAK3 = JAK3 (Homo sapiens (Human), UniProt P52333); assay: JAK kinase assay (HTRF), JAK3; settings: catalytic domain, ATP at Km (2 μM)
Description: as §1, §2
(§3) In Table 1 selected JAK kinase inhibitory activities are listed along with analytical tR and observed M+H^+ data (UPLC-MS method 7).

TYK2 = TYK2 (Homo sapiens (Human), UniProt P29597); assay: JAK kinase assay (HTRF), TYK2; settings: catalytic domain, ATP at Km (13 μM)
Description: as §1, §2, §3

Sequence of TYK2 (P29597 871-1187): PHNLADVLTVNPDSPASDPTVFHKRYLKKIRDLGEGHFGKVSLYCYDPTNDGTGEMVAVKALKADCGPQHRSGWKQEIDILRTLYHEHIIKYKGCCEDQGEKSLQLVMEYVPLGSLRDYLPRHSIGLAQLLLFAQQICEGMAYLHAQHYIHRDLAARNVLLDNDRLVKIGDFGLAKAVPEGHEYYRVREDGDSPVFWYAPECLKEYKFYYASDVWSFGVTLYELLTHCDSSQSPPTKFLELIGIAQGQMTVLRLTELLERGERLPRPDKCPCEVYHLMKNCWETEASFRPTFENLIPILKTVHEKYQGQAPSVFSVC
Sequence of JAK1 (P23458 850-1154): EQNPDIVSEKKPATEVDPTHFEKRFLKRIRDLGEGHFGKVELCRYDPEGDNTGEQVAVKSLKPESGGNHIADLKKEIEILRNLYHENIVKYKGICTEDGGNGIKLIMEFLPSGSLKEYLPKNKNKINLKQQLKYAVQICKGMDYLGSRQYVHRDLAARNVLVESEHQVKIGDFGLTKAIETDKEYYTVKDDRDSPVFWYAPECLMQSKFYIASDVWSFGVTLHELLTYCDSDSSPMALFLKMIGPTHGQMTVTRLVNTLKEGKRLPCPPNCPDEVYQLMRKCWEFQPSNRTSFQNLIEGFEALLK
Sequence of JAK2 (O60674 849-1124): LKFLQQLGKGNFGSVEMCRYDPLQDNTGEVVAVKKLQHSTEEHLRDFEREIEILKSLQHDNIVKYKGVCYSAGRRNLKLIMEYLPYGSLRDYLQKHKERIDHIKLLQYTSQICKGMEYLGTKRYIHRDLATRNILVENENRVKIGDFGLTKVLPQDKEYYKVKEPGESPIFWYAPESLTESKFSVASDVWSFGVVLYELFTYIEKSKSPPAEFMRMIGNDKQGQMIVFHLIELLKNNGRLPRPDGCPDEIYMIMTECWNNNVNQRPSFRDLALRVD
Sequence of JAK3 (P52333 822-1111): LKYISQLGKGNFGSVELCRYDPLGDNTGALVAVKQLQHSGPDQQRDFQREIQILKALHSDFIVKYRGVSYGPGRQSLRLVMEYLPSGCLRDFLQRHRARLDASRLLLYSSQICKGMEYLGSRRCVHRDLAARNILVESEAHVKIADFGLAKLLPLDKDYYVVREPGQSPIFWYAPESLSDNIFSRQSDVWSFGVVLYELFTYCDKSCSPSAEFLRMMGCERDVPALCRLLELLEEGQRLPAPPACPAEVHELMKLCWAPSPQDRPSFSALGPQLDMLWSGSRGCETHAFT

Row | Structure (SMILES) | EC50 (JAK1) [nM] | EC50 (JAK2) [nM] | EC50 (JAK3) [nM] | EC50 (TYK2) [nM]
1 | N#C[C@@H]1C[C@H]1CNC(=O)C1CCN(c2ncnc3[nH]ccc23)CC12CC2 (stereo partly drawn) [Example 102, N-[[(1R,2R)-2-cyanocyclopropyl]methyl]-5-(7H-pyrrolo[2,3-d]pyrimidin-4-yl)-5-azaspiro[2.5]octane-8-carboxamide] | 9.5 | 26.2 | 35 | 531
2 | O=C(NC[C@H](O)c1ccc(F)cn1)[C@H]1CCN(c2ncnc3[nH]ccc23)CC12CC2 [Example 46, (8S)-N-[(2S)-2-(5-fluoro-2-pyridyl)-2-hydroxy-ethyl]-5-(7H-pyrrolo[2,3-d]pyrimidin-4-yl)-5-azaspiro[2.5]octane-8-carboxamide] | 3.1 | 8.8 | 23.8 | 48.1
3 | C[C@H](NC(=O)C1CCN(c2ncnc3[nH]ccc23)CC12CC2)c1ccccc1 (stereo partly drawn) [Example 99, N-[(1S)-1-phenylethyl]-5-(7H-pyrrolo[2,3-d]pyrimidin-4-yl)-5-azaspiro[2.5]octane-8-carboxamide] | 9.1 | 11.2 | 31.1 | 399
4 | C[C@](CO)(NC(=O)[C@H]1CCN(c2ncnc3[nH]ccc23)CC12CC2)c1ccc(C#N)cn1 [Example 78, (8S)-N-[(1S)-1-(5-cyano-2-pyridyl)-2-hydroxy-1-methyl-ethyl]-5-(7H-pyrrolo[2,3-d]pyrimidin-4-yl)-5-azaspiro[2.5]octane-8-carboxamide] | 6.3 | 17 | 39.4 | 231
5 | O=C(N[C@H](CO)C1CCCCC1)[C@H]1CCN(c2ncnc3[nH]ccc23)CC12CC2 [Example 132, (8S)-N-[(1S)-1-cyclohexyl-2-hydroxy-ethyl]-5-(7H-pyrrolo[2,3-d]pyrimidin-4-yl)-5-azaspiro[2.5]octane-8-carboxamide] | 25.3 | 94.5 | 162 | 665
6 | O=C(NCC1(O)CCCC1)C1CCN(c2ncnc3[nH]ccc23)CC12CC2 (stereo not drawn) [Example 88, N-[(1-hydroxycyclopentyl)methyl]-5-(7H-pyrrolo[2,3-d]pyrimidin-4-yl)-5-azaspiro[2.5]octane-8-carboxamide] | 7.2 | 23.7 | 58.6 | 407
7 | O=C(N[C@H](CO)c1ccccn1)[C@H]1CCN(c2ncnc3[nH]ccc23)CC12CC2 [Example 135, (8S)-N-[(1S)-2-hydroxy-1-(2-pyridyl)ethyl]-5-(7H-pyrrolo[2,3-d]pyrimidin-4-yl)-5-azaspiro[2.5]octane-8-carboxamide] | 33.2 | 83.8 | 148 | 466
8 | C[C@H](NC(=O)[C@H]1CCN(c2ncnc3[nH]ccc23)CC12CC2)[C@@H](O)c1ccccn1 [Example 104, (8S)-N-[(1S,2R)-2-hydroxy-1-methyl-2-(2-pyridyl)ethyl]-5-(7H-pyrrolo[2,3-d]pyrimidin-4-yl)-5-azaspiro[2.5]octane-8-carboxamide] | 10.1 | 30.3 | 163 | 149
9 | C[C@@H](NC(=O)[C@H]1CCN(c2ncnc3[nH]ccc23)CC12CC2)c1ccc(C#N)c(F)c1 [Example 84, (8S)-N-[(1R)-1-(4-cyano-3-fluoro-phenyl)ethyl]-5-(7H-pyrrolo[2,3-d]pyrimidin-4-yl)-5-azaspiro[2.5]octane-8-carboxamide] | 7 | 24.1 | 55.5 | 249
10 | Cc1cc([C@H](O)[C@H](C)NC(=O)[C@H]2CCN(c3ncnc4[nH]ccc34)CC23CC3)ncc1F [Example 75, (8S)-N-[(1S,2R)-2-(5-fluoro-4-methyl-2-pyridyl)-2-hydroxy-1-methyl-ethyl]-5-(7H-pyrrolo[2,3-d]pyrimidin-4-yl)-5-azaspiro[2.5]octane-8-carboxamide] | 6.1 | 16.3 | 102 | 50.2
11 | O=C(NCc1cccc(F)c1)C1CCN(c2ncnc3[nH]ccc23)CC12CC2 (stereo not drawn) [Example 81, N-[(3-fluorophenyl)methyl]-5-(7H-pyrrolo[2,3-d]pyrimidin-4-yl)-5-azaspiro[2.5]octane-8-carboxamide] | 6.7 | 14.1 | 37.7 | 117
12 | N#C[C@H]1CC[C@H](CNC(=O)C2CCN(c3ncnc4[nH]ccc34)CC23CC3)C1 (stereo partly drawn) [Example 83, N-[[(1S,3S)-3-cyanocyclopentyl]methyl]-5-(7H-pyrrolo[2,3-d]pyrimidin-4-yl)-5-azaspiro[2.5]octane-8-carboxamide] | 6.8 | 22.6 | 44.3 | 390
13 | Cc1cc(F)ccc1[C@H](CO)NC(=O)[C@H]1CCN(c2ncnc3[nH]ccc23)CC12CC2 [Example 77, (8S)-N-[(1R)-1-(4-fluoro-2-methyl-phenyl)-2-hydroxy-ethyl]-5-(7H-pyrrolo[2,3-d]pyrimidin-4-yl)-5-azaspiro[2.5]octane-8-carboxamide] | 6.2 | 16.3 | 31.3 | 115
14 | O=C(N[C@H](CO)Cc1ccccc1)C1CCN(c2ncnc3[nH]ccc23)CC12CC2 (stereo partly drawn) [Example 141, N-[(1S)-1-benzyl-2-hydroxy-ethyl]-5-(7H-pyrrolo[2,3-d]pyrimidin-4-yl)-5-azaspiro[2.5]octane-8-carboxamide] | 41.2 | 81.6 | 52 | 4160
15 | O=C(N[C@@H](CO)Cc1ccccc1)C1CCN(c2ncnc3[nH]ccc23)CC12CC2 (stereo partly drawn) [Example 137, N-[(1R)-1-benzyl-2-hydroxy-ethyl]-5-(7H-pyrrolo[2,3-d]pyrimidin-4-yl)-5-azaspiro[2.5]octane-8-carboxamide] | 38 | 30.5 | 91.6 | 1380
16 | COc1cccc(CNC(=O)C2CCN(c3ncnc4[nH]ccc34)CC23CC3)c1 (stereo not drawn) [Example 119, N-[(3-methoxyphenyl)methyl]-5-(7H-pyrrolo[2,3-d]pyrimidin-4-yl)-5-azaspiro[2.5]octane-8-carboxamide] | 13.4 | 36.8 | 71.1 | 539
17 | N#Cc1cccc([C@H](O)CNC(=O)[C@H]2CCN(c3ncnc4[nH]ccc34)CC23CC3)c1 [Example 106, (8S)-N-[(2S)-2-(3-cyanophenyl)-2-hydroxy-ethyl]-5-(7H-pyrrolo[2,3-d]pyrimidin-4-yl)-5-azaspiro[2.5]octane-8-carboxamide] | 10.2 | 25.2 | 44.7 | 110
18 | O=C(N[C@H](CO)C1CCC1)[C@H]1CCN(c2ncnc3[nH]ccc23)CC12CC2 [Example 147, (8S)-N-[(1S)-1-cyclobutyl-2-hydroxy-ethyl]-5-(7H-pyrrolo[2,3-d]pyrimidin-4-yl)-5-azaspiro[2.5]octane-8-carboxamide] | 68.1 | 121 | 162 | 914
19 | N#Cc1ccc(CNC(=O)[C@@H]2CCN(c3ncnc4[nH]ccc34)CC23CC3)cc1 [Example 145, (8R)-N-[(4-cyanophenyl)methyl]-5-(7H-pyrrolo[2,3-d]pyrimidin-4-yl)-5-azaspiro[2.5]octane-8-carboxamide] | 64.4 | 251 | 176 | 5740
20 | O=C(N[C@@H](CO)C1CCC1)[C@H]1CCN(c2ncnc3[nH]ccc23)CC12CC2 [Example 148, (8S)-N-[(1R)-1-cyclobutyl-2-hydroxy-ethyl]-5-(7H-pyrrolo[2,3-d]pyrimidin-4-yl)-5-azaspiro[2.5]octane-8-carboxamide] | 70.6 | 139 | 163 | 1080
21 | CCc1cc(C#N)ccc1[C@H](CO)NC(=O)[C@H]1CCN(c2ncnc3[nH]ccc23)CC12CC2 [Example 89, (8S)-N-[(1R)-1-(4-cyano-2-ethyl-phenyl)-2-hydroxy-ethyl]-5-(7H-pyrrolo[2,3-d]pyrimidin-4-yl)-5-azaspiro[2.5]octane-8-carboxamide] | 7.5 | 31 | 53.7 | 284
